# Target: C-C chemokine receptor type 5 (Macaca fascicularis)
# Assay: Antagonistic activity against monkey C-C chemokine receptor type 5.
row,Compound,IC50 [µM]
1,"Cc1cccc(C)c1C(=O)N1CCC(C)(N2CCC(Nc3ccc(C(F)(F)F)cc3)CC2)CC1 [(2,6-Dimethyl-phenyl)-[4'-methyl-4-(4-trifluoromethyl-phenylamino)-[1,4']bipiperidinyl-1'-yl]-methanone]",0.0011
2,"Cc1cc[n+]([O-])c(C)c1C(=O)N1CCC(N2CCC(N(c3ccccc3)c3ccccc3)CC2)CC1 [(2,4-Dimethyl-1-oxy-pyridin-3-yl)-(4-diphenylamino-[1,4']bipiperidinyl-1'-yl)-methanone]",0.117
3,"Cc1ccccc1C(=O)N1CCC(C)(N2CCC(N(c3ccccc3)c3ccccc3)CC2)CC1 [(4-Diphenylamino-4'-methyl-[1,4']bipiperidinyl-1'-yl)-o-tolyl-methanone]",0.0286
4,"Cc1cccc(C)c1C(=O)N1CCC(C)(N2CCC(Nc3ccc4ccn(C)c4c3)CC2)CC1 [(2,6-Dimethyl-phenyl)-[4'-methyl-4-(1-methyl-1H-indol-6-ylamino)-[1,4']bipiperidinyl-1'-yl]-methanone]",0.043
5,"Cc1cccc(C)c1C(=O)N1CCC(C)(N2CCC(Nc3cccc4ccn(C)c34)CC2)CC1 [(2,6-Dimethyl-phenyl)-[4'-methyl-4-(1-methyl-1H-indol-7-ylamino)-[1,4']bipiperidinyl-1'-yl]-methanone]",0.147
6,"Cc1cccc(C)c1C(=O)N1CCC(C)(N2CCC(N(Cc3ccccc3)c3ccc(Br)cc3)CC2)CC1 [{4-[Benzyl-(4-bromo-phenyl)-amino]-4'-methyl-[1,4']bipiperidinyl-1'-yl}-(2,6-dimethyl-phenyl)-methanone]",0.0062

# — BindingDB's records for doi:10.1021/jm031046g (Novartis Institutes For Biomedical Research, 2004)
